Legend:
hERG channel = molecular target: T1, hERG channel (Homo sapiens, UniProt Q12809); experiment: hERG electrophysiology, automated whole-cell patch clamp (Patchliner); type: cell-based; conditions: hERG channel, whole-cell patch clamp
T1 construct: expressed in transfected cells
Summary of the method: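 Automated whole-cell patch clamp on CHO-K1 cells stably expressing hERG; 30 nM–100 μM applied cumulatively to the same cell, ≤0.3% DMSO. Pulses: −80 mV holding, +20 mV for 300 ms, −50 mV for 300 ms tail, 0.3 Hz, 70 per concentration. Last-pulse AUC and peak, normalized to control, were fitted to a Hill equation for IC50.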

Kv1.3 potassium channel = molecular target: T2, Kv1.3 potassium channel (Homo sapiens, UniProt P22001); experiment: Kv1.3 potassium channel blocker activity, automated whole-cell patch clamp (Patchliner); type: cell-based; conditions: Kv1.3 potassium channel, whole-cell patch clamp
T2 construct: expressed in transfected cells
T2 sequence (P22001 whole entry): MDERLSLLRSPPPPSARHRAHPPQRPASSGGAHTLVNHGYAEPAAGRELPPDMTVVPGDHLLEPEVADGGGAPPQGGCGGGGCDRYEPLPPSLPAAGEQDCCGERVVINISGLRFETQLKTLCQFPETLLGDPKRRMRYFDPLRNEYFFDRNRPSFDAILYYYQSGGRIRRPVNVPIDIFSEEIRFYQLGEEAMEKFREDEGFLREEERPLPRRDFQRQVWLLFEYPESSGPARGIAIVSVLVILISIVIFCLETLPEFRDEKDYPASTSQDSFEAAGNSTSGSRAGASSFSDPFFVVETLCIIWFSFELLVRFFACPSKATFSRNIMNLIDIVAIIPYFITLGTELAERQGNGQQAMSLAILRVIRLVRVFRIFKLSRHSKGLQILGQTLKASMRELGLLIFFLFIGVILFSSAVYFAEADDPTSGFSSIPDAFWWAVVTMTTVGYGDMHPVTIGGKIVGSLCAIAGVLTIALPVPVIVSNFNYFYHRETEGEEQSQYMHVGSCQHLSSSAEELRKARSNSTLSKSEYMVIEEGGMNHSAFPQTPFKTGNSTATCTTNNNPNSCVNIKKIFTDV
Summary of the method: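 IC50 came from Hill-equation fits of peak and AUC currents from the final pulse at each concentration, normalized to compound-free control. Compounds applied consecutively at 30 nM to 100 μM (up to 0.3% DMSO) to Kv1.3-expressing CHO-K1 cells, P/4 leak subtraction. Pulses were +40 mV, 100 ms, from −90 mV holding, at 0.1 Hz on Patchliner.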

T1 sequence (Q12809 whole entry): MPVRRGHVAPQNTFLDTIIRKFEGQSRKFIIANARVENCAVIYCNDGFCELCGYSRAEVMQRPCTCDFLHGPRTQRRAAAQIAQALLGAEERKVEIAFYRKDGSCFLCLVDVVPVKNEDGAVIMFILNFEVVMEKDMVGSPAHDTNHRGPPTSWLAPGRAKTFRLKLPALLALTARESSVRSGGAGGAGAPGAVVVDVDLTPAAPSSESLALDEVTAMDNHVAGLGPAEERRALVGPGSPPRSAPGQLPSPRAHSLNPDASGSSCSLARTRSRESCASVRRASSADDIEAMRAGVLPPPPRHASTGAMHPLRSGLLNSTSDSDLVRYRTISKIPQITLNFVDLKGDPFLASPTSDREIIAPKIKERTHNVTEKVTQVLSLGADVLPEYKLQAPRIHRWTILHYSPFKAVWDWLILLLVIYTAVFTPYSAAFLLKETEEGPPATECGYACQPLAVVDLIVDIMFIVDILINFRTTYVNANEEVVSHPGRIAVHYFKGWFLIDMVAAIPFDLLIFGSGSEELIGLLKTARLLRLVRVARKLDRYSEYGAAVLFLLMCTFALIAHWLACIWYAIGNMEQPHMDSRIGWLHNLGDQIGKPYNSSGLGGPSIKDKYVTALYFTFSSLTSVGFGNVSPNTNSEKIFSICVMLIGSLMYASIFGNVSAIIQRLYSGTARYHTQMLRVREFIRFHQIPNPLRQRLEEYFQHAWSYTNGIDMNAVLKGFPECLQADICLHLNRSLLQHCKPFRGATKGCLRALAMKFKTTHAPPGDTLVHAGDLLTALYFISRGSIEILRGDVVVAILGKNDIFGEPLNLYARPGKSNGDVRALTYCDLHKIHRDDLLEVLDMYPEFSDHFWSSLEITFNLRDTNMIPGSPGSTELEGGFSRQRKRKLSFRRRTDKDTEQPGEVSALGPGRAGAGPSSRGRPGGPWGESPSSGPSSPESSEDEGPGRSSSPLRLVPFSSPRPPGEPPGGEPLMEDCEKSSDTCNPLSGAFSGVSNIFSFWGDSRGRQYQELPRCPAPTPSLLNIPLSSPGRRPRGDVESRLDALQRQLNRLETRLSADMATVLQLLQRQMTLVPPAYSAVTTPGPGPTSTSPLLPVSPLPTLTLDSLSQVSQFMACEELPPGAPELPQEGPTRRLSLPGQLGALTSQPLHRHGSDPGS

SMILES	IC50 (Kv1.3 potassium channel)	IC50 (hERG channel)
O=C(C[C@H](O)C(F)F)N1CC(=O)N2C[C@@H](c3c(O)ccc(Cl)c3Cl)C[C@H]2C1 [Compound 75, (7R,8aS)-7-(2,3-dichloro-6-hydroxyphenyl)-2-[(3S)-4,4-difluoro-3-hydroxybutanoyl] hexahydropyrrolo [1,2-a]pyrazin-4-one]	< 1 µM	> 30 µM
CCC[C@H](CO)C(=O)N1CC(=O)N2C[C@@H](c3c(O)ccc(Cl)c3Cl)C[C@H]2C1 [Compound 77, (7R,8aS)-7-(2,3-dichloro-6-hydroxyphenyl)-2-[(2R)-2-(hydroxymethyl)pentanoyl]-hexahydropyrrolo [1,2-a]pyrazin-4-one]	< 1 µM	> 30 µM
O=C(C[C@@H](O)CO)N1CC(=O)N2C[C@@H](c3c(O)ccc(Cl)c3Cl)C[C@H]2C1 [Compound 78, (7R,8aS)-7-(2,3-dichloro-6-hydroxyphenyl)-2-[(3R)-3,4-dihydroxybutanoyl]-hexahydropyrrolo [1,2-a]pyrazin-4-one]	< 1 µM	> 30 µM
NC(=O)N1CC(=O)N2CC[C@@H](c3c(O)ccc(Cl)c3Cl)C[C@H]2C1 [Compound 96, (8R,9aS)-8-(2,3-dichloro-6-hydroxyphenyl)-4-oxo-hexahydro-1H-pyrido[1,2-a]pyrazine-2-carboxamide]	< 1 µM	> 30 µM
O=C(N1CC(CO)C1)N1CC(=O)N2C[C@@H](c3c(O)ccc(Cl)c3Cl)C[C@H]2C1 [Compound 103, (7R,8aS)-7-(2,3-dichloro-6-hydroxypheny1)-2-[3-(hydroxymethyl)azetidine-1-carbonyl]-hexahydropyrro[1,2-a]pyrazine-4-one]	< 1 µM	> 30 µM
O=C(NCCO)N1CC(=O)N2C[C@@H](c3c(O)ccc(Cl)c3Cl)C[C@H]2C1 [Compound 104, (7R,8aS)-7-(2,3-dichloro-6-hydroxyphenyl)-N-(2-hydroxyethyl)-4-oxo-hexahydropyrro[1,2-a]pyrazine-2-carboxamide]	< 1 µM	> 30 µM
CNC(=O)CN1CC(=O)N2C[C@@H](c3c(O)ccc(Cl)c3Cl)C[C@H]2C1 [Compound 111, 2-[(7R,8aS)-7-(2,3-dichloro-6-hydroxyphenyl)-4-oxo-hexahydropyrrolo [1,2-a]pyrazin-2-yl]-N-methylacetamide]	< 1 µM	> 30 µM
O=C1CN(C(CO)CO)C[C@@H]2C[C@H](c3c(O)ccc(Cl)c3Cl)CCN12 [Compound 122, (8R,9aS)-8-(2,3-dichloro-6-hydroxyphenyl)-2-(1,3-dihydroxypropan-2-yl)-hexahydro-1H-pyrido[1,2-a] pyrazin-4-one]	< 1 µM	> 30 µM
O=C1CN(C(CO)CO)C[C@@H]2C[C@H](c3c(O)ccc(Cl)c3Cl)CN12 [Compound 124, (7R,8aS)-7-(2,3-dichloro-6-hydroxyphenyl)-2-(1,3-dihydroxypropan-2-yl)-hexahydropyrrolo [1,2-a]pyrazin-4-one]	< 1 µM	> 30 µM
CC(CO)N1CC(=O)N2C[C@@H](c3c(O)ccc(Cl)c3Cl)C[C@H]2C1 (stereo partly drawn) [Compound 127, (7R,8aS)-7-(2,3-dichloro-6-hydroxyphenyl)-2-(1-hydroxypropan-2-yl)-hexahydropyrrolo [1,2-a]pyrazin-4-one]	< 1 µM	> 30 µM
O=C1CN(C2CNC2)C[C@@H]2C[C@H](c3c(O)ccc(Cl)c3Cl)CN12 [Compound 129, (7R,8aS)-2-(azetidin-3-yl)-7-(2,3-dichloro-6-hydroxyphenyl)-hexahydropyrrolo [1,2-a]pyrazin-4-one]	< 1 µM	> 30 µM
O=C(CO)N1CC(N2CC(=O)N3C[C@@H](c4c(O)ccc(Cl)c4Cl)C[C@H]3C2)C1 [Compound 133, (7R,8aS)-7-(2,3-dichloro-6-hydroxyphenyl)-2-[1-(2-hydroxyacetyl)azetidin-3-yl]-hexahydropyrrolo [1,2-a]pyrazin-4-one]	< 1 µM	> 30 µM
O=C1CN(C2CCNCC2)C[C@@H]2C[C@H](c3c(O)ccc(Cl)c3Cl)CN12 [Compound 141, (7R,8aS)-7-(2,3-dichloro-6-hydroxyphenyl)-2-(piperidin-4-yl)-hexahydropyrrolo [1,2-a]pyrazin-4-one]	< 1 µM	> 30 µM

Further lines, with some results ahead:

IC50 (Kv1.3 potassium channel)	SMILES	IC50 (hERG channel)
< 1 µM	O=C(C[C@@H](O)C(F)F)N1CC(=O)N2C[C@@H](c3c(O)ccc(Cl)c3Cl)C[C@H]2C1 [Compound 76, (7R,8aS)-7-(2,3-dichloro-6-hydroxyphenyl)-2-[(3R)-4,4-difluoro-3-hydroxybutanoyl]-hexahydropyrrolo [1,2-a]pyrazin-4-one]	> 30 µM
< 1 µM	C[C@@H]1NC[C@@H]2C[C@H](c3c(O)ccc(Cl)c3Cl)CN2C1=O [Compound 85, (3S,7R,8aS)-7-(2,3-dichloro-6-hydroxyphenyl)-3-methyl-hexahydro-1H-pyrrolo[1,2-a]pyrazin-4-one]	< 30 µM
< 1 µM	C[C@@H]1CC(=O)N2C[C@@H](c3c(O)ccc(Cl)c3Cl)C[C@H]2CN1C(=O)CO [Compound 93, (3R,8R,9aS)-8-(2,3-dichloro-6-hydroxyphenyl)-2-(2-hydroxyacetyl)-3-methyl-hexahydro-1H-pyrrolo[1,2-a][1,4]diazepin-5-one]	< 30 µM
< 1 µM	C[C@H]1CC(=O)N2C[C@@H](c3c(O)ccc(Cl)c3Cl)C[C@H]2CN1C(=O)CO [Compound 94, (3S,8R,9aS)-8-(2,3-dichloro-6-hydroxyphenyl)-2-(2-hydroxyacetyl)-3-methyl-hexahydro-1H-pyrrolo[1,2-a][1,4]diazepin-5-one]	> 30 µM
< 1 µM	NC(=O)N1CCC(=O)N2C[C@@H](c3c(O)ccc(Cl)c3Cl)C[C@H]2C1 [Compound 97, (8R,9aS)-8-(2,3-dichloro-6-hydroxyphenyl)-5-oxo-hexahydro-1H-pyrrolo [1,2-a][1,4]diazepine-2-carboxamide]	> 30 µM
< 1 µM	CC1(O)CN(C(=O)N2CC(=O)N3C[C@@H](c4c(O)ccc(Cl)c4Cl)C[C@H]3C2)C1 [Compound 100, (7R,8aS)-7-(2,3-dichloro-6-hydroxyphenyl)-2-(3-hydroxy-3-methylazetidine-1-carbonyl)-hexahydropyrro[1,2-a]pyrazine-4-one]	> 30 µM
< 1 µM	O=C(N1CC[C@@H](O)C1)N1CC(=O)N2C[C@@H](c3c(O)ccc(Cl)c3Cl)C[C@H]2C1 [Compound 101, (7R,8aS)-7-(2,3-dichloro-6-hydroxyphenyl)-2-[(3R)-3-hydroxypyrrolidine-1-carbonyl]-hexahydropyrro[1,2-a]pyrazine-4-one]	> 30 µM
< 1 µM	O=C(N1CC[C@H](O)C1)N1CC(=O)N2C[C@@H](c3c(O)ccc(Cl)c3Cl)C[C@H]2C1 [Compound 102, (7R,8aS)-7-(2,3-dichloro-6-hydroxyphenyl)-2-[(3S)-3-hydroxypyrrolidine-1-carbonyl]-hexahydropyrro[1,2-a]pyrazine-4-one]	> 30 µM
< 1 µM	NC(=O)CN1CC(=O)N2C[C@@H](c3c(O)ccc(Cl)c3Cl)C[C@H]2C1 [Compound 110, 2-[(7R,8aS)-7-(2,3-dichloro-6-hydroxyphenyl)-4-oxo-hexahydropyrrolo [1,2-a]pyrazin-2-yl]acetamide]	> 30 µM
< 1 µM	O=C1CN(CC(O)CO)C[C@@H]2C[C@H](c3c(O)ccc(Cl)c3Cl)CN12 (stereo partly drawn) [Compound 112, (7R,8aS)-7-(2,3-dichloro-6-hydroxyphenyl)-2-(2,3-dihydroxypropyl)-hexahydropyrrolo [l,2-a]pyrazin-4-one]	> 30 µM
< 1 µM	O=C1CN(CCN2CCNCC2)C[C@@H]2C[C@H](c3c(O)ccc(Cl)c3Cl)CN12 [Compound 120, (7R,8aS)-7-(2,3-dichloro-6-hydroxyphenyl)-2-[2-(piperazin-1-yl)ethyl]-hexahydropyrrolo [1,2-a]pyrazin-4-one]	> 30 µM
< 1 µM	O=C1CN(CCN2CCOCC2)C[C@@H]2C[C@H](c3c(O)ccc(Cl)c3Cl)CN12 [Compound 121, (7R,8aS)-7-(2,3-dichloro-6-hydroxyphenyl)-2-[2-(morpholin-4-yl)ethyl]-hexahydropyrrolo [1,2-a]pyrazin-4-one]	< 30 µM
< 1 µM	O=C1CN(C2CC(O)C2)C[C@@H]2C[C@H](c3c(O)ccc(Cl)c3Cl)CN12 (stereo partly drawn) [Compound 123, (7R,8aS)-7-(2,3-dichloro-6-hydroxyphenyl)-2-(3-hydroxycyclobutyl)-hexahydropyrrolo[1,2-a]pyrazin-4-one]	> 30 µM
< 1 µM	O=C1CN(CC2CNC2)C[C@@H]2C[C@H](c3c(O)ccc(Cl)c3Cl)CN12 [Compound 128, (7R,8aS)-2-(azetidin-3-ylmethyl)-7-(2,3-dichloro-6-hydroxyphenyl)-hexahydropyrrolo [1,2-a]pyrazin-4-one]	> 30 µM
< 1 µM	CN1CC(N2CC(=O)N3C[C@@H](c4c(O)ccc(Cl)c4Cl)C[C@H]3C2)C1 [Compound 132, (7R,8aS)-7-(2,3-dichloro-6-hydroxyphenyl)-2-(1-methylazetidin-3-yl)-hexahydropyrrolo [1,2-a]pyrazin-4-one]	< 30 µM
< 1 µM	O=C1CN(C2CN(CCO)C2)C[C@@H]2C[C@H](c3c(O)ccc(Cl)c3Cl)CN12 [Compound 134, (7R,8aS)-7-(2,3-dichloro-6-hydroxyphenyl)-2-[1-(2-hydroxyethyl)azetidin-3-yl]-hexahydropyrrolo [1,2-a]pyrazin-4-one]	> 30 µM

— patent publication US20230049231A1 (priority 2019, published 2023)
